# From patent US9138659B2, “Compositions, methods, and systems relating to controlled crystallization and/or nucleation of molecular species” (Massachusetts Institute of Technology, priority 2010, dated 2015)
# “And” between values parts separate entries of the source, which are not always exact repeats. Equal entries are not always repeated.
# How the values were obtained:
# [1] = ROY; at the chosen experimental condition; cited from earlier work
# [2] = ROY nucleation induction time with PEGMDA microgels in ethanol; format: physicochemical; conditions: for τ(O): ROY orange needle form; for τ(R): ROY red form; for τ(Y): ROY yellow form
# Protocol: (§1) In each experiment, crystallization of pure forms of either Y (yellow prisms), R (red prisms) or ON (orange needles) were observed from ethanol solution stochastically (FIG. 30), and their frequencies of occurrence were calculated by conducting 50-150 experiments in each case (FIG. 31). Nucleation induction time data from bulk solution or with PEG130DA microgels were fitted with the stretched exponential model and the average induction time thus regressed represents an average of all forms (Table 10), since the frequencies of occurrence for R and ON were too low for separate statistical analysis. […] In the multi-exponential model, each exponential decay process may be better represented with a stretched exponential, however, a simple exponential suffices in this case and decent fit was obtained with R^2 very close to unity (Table 11).
# Nucleation induction time statistics of ROY with or without the presence of PEGDA microgels were determined. For each type of samples, 50-100 experiments were performed to obtain the induction time statistics wherein P is the probability for observing no crystallization event within time t is estimated from the fraction of samples haven't crystallized at this time point. Either stretched exponential model or multi-exponential models were employed to fit the data (see Tables 10 and 11).
# Induction time distribution data were fitted with stretched exponentials via nonlinear least square regression: P=exp[−(t/τ)^β], where P is the probability to observe no crystallization event within time t. τ is an average of induction times for all Y, R, ON forms.
# Induction time distribution data were fitted with superposition of two or three exponentials via nonlinear least square regression. Two-exponential fit was employed for PEG200DA and PEG700DA samples: P=a·exp[−t/τ(Y)]+(1−a)·exp[−t/τ(R)], with τ(R) an average of forms R and O for the PEG700DA sample. Three-exponential fit was used for PEG400DA and PEG575DA samples: P=a·exp[−t/τ(Y)]+b·exp[−t/τ(R)]+(1−a−b)·exp[−t/τ(O)], where Y, R, and O represent the yellow, red and orange needle forms respectively. *τ, an average induction time of Form R and ON, given the lack of data points to distinguish the two.
# [3] = ROY polymorph frequency of occurrence; format: physicochemical; conditions: vs bulk crystallization
# Protocol: as §1
# In FIG. 31: Polymorph frequency of occurrence in 12 mg/ml ROY-ethanol solution with or without microgels of various mesh sizes (left) and at higher solution concentrations, C0 (right). Frequency of occurrence is calculated as the percentage of samples crystallized in a particular form within 1440 min out of the total number of samples. The analysis for 12 mg/ml solution is carried out previously. In summary, addition of PEGDA microgels accelerated crystallization of all three forms, Y, R and ON.
# [4] = Preferred orientation of ROY crystals on PEGMDA polymer films by XRD; format: physicochemical
# Text: The ROY-polymer interactions were probed via preferred crystal orientations on flat PEGMDA films. From the bulk solution, ROY crystallized in Form Y predominantly. In comparison, PEGMDA films templated nucleation of R, as well as Y, which is consistent with the observations with microgels. […] To verify this observation, the contribution from each crystal facet was quantified and listed the prominent ones in Table 12. […] Polymers with M=130, 200 g/mol favor R (111) and R (220). As M increases, percentage of R decreases and Y increases to become the dominant polymorph on M=575, 700 g/mol, which is contact with the polymer via Y (020) and/or (040) facet.
# XRD patterns of ROY crystallized from bulk solution and on PEGDA films under the substantially similar conditions were obtained. Additional peaks observed from crystals templated by polymer films but not from bulk crystals were observed. Reference patterns were calculated from CSD using POWD-12++.
# Analysis on the XRD data is carried out by normalizing the measured peak intensities Ip^i with the reference peak intensities Ibulk^i from the bulk sample, following the formula
# [formula] where ηi is the percentage of crystals in orientation i, and p is short for polymer. Percentages are highlighted as bold for dominant orientations in each case.
# [5] = ROY nucleation induction time with PEGMDA microgels in ethanol; format: physicochemical; conditions: ROY Form R; without microgels
# [6] = Partition coefficients of CBZ and ROY in PEGMDA microgels from ethanol solutions; format: physicochemical; conditions: for Partition coefficient κ (solute mass fraction in gel solution / bulk): ethanol solution
# [7] = PEGMDA polymer film M 130 g/mol
# [8] = PEGMDA polymer film M 200 g/mol
# [9] = PEGMDA polymer film M 400 g/mol
# [10] = PEGMDA polymer film M 575 g/mol
# [11] = PEGMDA polymer film M 700 g/mol
structure (smiles),measurement,setting,value
"Cc1cc(C#N)c(Nc2ccccc2[N+](=O)[O-])s1 [ROY, 5-methyl-2-[(2-nitrophenyl)amino]-3-thiophenecarbonitrile]",relative stability of the three observed polymorphs,[1],Y>ON>R
same,time within which all nucleation of Y occurred,"[2]; ROY Form Y, PEG200DA microgels",≤ 100 min
same,τ(O),[2]; PEG400DA microgels,3300 min
same,τ(O),[2]; PEG575DA microgels,2900 min
same,τ(R),[2]; PEG200DA microgels,9000 ± 6000 min
same,τ(R),[2]; PEG400DA microgels,1600 ± 400 min
same,τ(R),[2]; PEG575DA microgels,200 min and 200 ± 20 min
same,τ(Y),[2]; PEG200DA microgels,26.0 ± 1.5 min
same,τ(Y),[2]; PEG400DA microgels,22.0 ± 0.6 min
same,τ(Y),[2]; PEG575DA microgels,10.0 ± 0.8 min
same,τ(Y),[2]; PEG700DA microgels,12.0 ± 1.2 min
same,"average nucleation induction time τ (average of Y, R, ON forms)","[2]; ROY, Bulk ethanol solution",10000 ± 2000 min
same,"average nucleation induction time τ (average of Y, R, ON forms)","[2]; ROY, PEG130DA microgels",4000 ± 750 min
same,"τ(R), an average induction time of Form R and ON","[2]; ROY, PEG700DA microgels",2600 ± 400 min
same,improvement of Form R frequency of occurrence by polymer microgels,[3],up to 20 times
same,Percentage of ROY crystals in orientation R (111),[4]; [7],38.0%
same,Percentage of ROY crystals in orientation R (220),[4]; [7],46.8%
same,Percentage of ROY crystals in orientation Y (020),[4]; [7],7.5%
same,Percentage of ROY crystals in orientation Y (040),[4]; [7],3.4%
same,Percentage of ROY crystals in orientation R (111),[4]; [8],36.2%
same,Percentage of ROY crystals in orientation R (220),[4]; [8],53.6%
same,Percentage of ROY crystals in orientation Y (020),[4]; [8],3.5%
same,Percentage of ROY crystals in orientation Y (040),[4]; [8],1.6%
same,Percentage of ROY crystals in orientation R (111),[4]; [9],28.8%
same,Percentage of ROY crystals in orientation R (220),[4]; [9],24.9%
same,Percentage of ROY crystals in orientation Y (020),[4]; [9],23.6%
same,Percentage of ROY crystals in orientation Y (040),[4]; [9],9.9%
same,Percentage of ROY crystals in orientation R (111),[4]; [10],12.9%
same,Percentage of ROY crystals in orientation R (220),[4]; [10],20.0%
same,Percentage of ROY crystals in orientation Y (020),[4]; [10],26.9%
same,Percentage of ROY crystals in orientation Y (040),[4]; [10],13.1%
same,Percentage of ROY crystals in orientation R (111),[4]; [11],9.8%
same,Percentage of ROY crystals in orientation R (220),[4]; [11],14.4%
same,Percentage of ROY crystals in orientation Y (020),[4]; [11],50.9%
same,Percentage of ROY crystals in orientation Y (040),[4]; [11],16.9%
same,average induction time of R,[5],over 10000 min
same,ROY concentration in the gel phase relative to bulk solution,"[6]; PEGMDA gels, ethanol",6-11 times
same,Partition coefficient κ (solute mass fraction in gel solution / bulk),[6]; PEGMDA microgels M 130 g/mol,6.3 ± 0.2
same,Partition coefficient κ (solute mass fraction in gel solution / bulk),[6]; PEGMDA microgels M 200 g/mol,6.1 ± 0.9
same,Partition coefficient κ (solute mass fraction in gel solution / bulk),[6]; PEGMDA microgels M 400 g/mol,11.0 ± 0.4
same,Partition coefficient κ (solute mass fraction in gel solution / bulk),[6]; PEGMDA microgels M 575 g/mol,11.3 ± 1.6
same,Partition coefficient κ (solute mass fraction in gel solution / bulk),[6]; PEGMDA microgels M 700 g/mol,11.8 ± 1.1
